The source of these data is patent publication US20220096862A1, “METHOD FOR IRRADIATING CELLS WITH LIGHT, METHOD FOR CONTROLLING MEDICAL DEVICE, AND MEDICAL DEVICE” (OLYMPUS CORPORATION, priority 2019, published 2022).

Test [1] has as its system A431 tumor bearing mice. The experiment in a line: Rates of damage of tumor tissues from pathological images after irradiation at different light intensities (PIT), FIG. 5. Type of test: in vivo. The note with it: 300 μg/mouse, irradiated one day after administration, total amount 100 J/cm^2, 25 mW/cm^2 or 50 mW/cm^2 compared with 100 mW/cm^2 or 300 mW/cm^2, tumors excised after one more day. The method, then:
Pan-IR700, which is the photosensitizing agent 20, is administered to the A431 tumor bearing mice at 300 μg/mouse. One day after the administration of Pan-IR700, the cells C are irradiated with light of respective irradiation intensities shown in FIG. 5 up to the same total amount (100 J/cm^2). After one more day, tumor tissues are excised, and rates of damage of the tissues are calculated from pathological images of cross sections of the tumors.

Test [2] deals with A431 tumor bearing mice. In words: Percentage of attenuation of fluorescence versus cellular cytotoxicity after therapeutic light irradiation (PIT), FIG. 4. Type of test: in vivo. The method, then: The total amount of irradiation is the same in both the case where irradiation is performed with the therapeutic light L with the light intensity of 50 mW/cm^2 or less and the case where irradiation is performed with the therapeutic light L with the light intensity of 100 mW/cm^2 or more. In other words, in the case where irradiation is performed with the therapeutic light L with the light intensity of 50 mW/cm^2 or less, a time period during which the cells C are irradiated is longer than a time period during which the cells C are irradiated with the therapeutic light L with the light intensity of 100 mW/cm^2 or more.
After the cells C are irradiated with the therapeutic light L, if the rate of reduction of fluorescence (the percentage of attenuation of fluorescence) and cellular cytotoxicity have a proportional relation, as shown by a dashed-and-dotted line A in FIG. 4, when the rate of reduction of fluorescence is 100%, cellular cytotoxicity is 100%. Therefore, it should be determined that all cells C disappear if fluorescence is no longer detected.
How ever, as the result of experiments performed by the applicant, the following is found. In actual experiments, as the result of observation that is performed after irradiation, by using the endoscope 1, for example, as the rate of reduction of fluorescence approaches 70% (or little more than 70%), cellular cytotoxicity approaches 100%.

Consider “Pan-IR700: phthalocyanine fluorescent dye (IRDye 700) attached to one antibody molecule (panitumumab, monoclonal antibody to Human EGFR)”, for which, in the test on A431 tumor bearing mice [1], the “cellular cytotoxicity (rates of damage of the tissues)” value is recorded as “greater”. In the test with A431 tumor bearing mice [2] (as the rate of reduction of fluorescence approaches 70% (or little more than 70%), after irradiation with therapeutic light L, FIG. 4), this substance displayed a cellular cytotoxicity of around 100%. For the same substance, the “relationship of reduction of fluorescence and cellular cytotoxicity” value with A431 tumor bearing mice [2] (therapeutic light L with light intensity of 50 mW/cm^2 or less (solid line B, FIG. 4)) is recorded as “linear relationship”. Moreover, the “rate of cellular cytotoxicity” value with A431 tumor bearing mice [2] (therapeutic light L with light intensity of 100 mW/cm^2 or more (solid line D, FIG. 4), reduction of fluorescence also found) is “low”.
